In ChEMBL document CHEMBL1125764, “Muscarinic receptor binding profile of para-substituted caramiphen analogues” (J Med Chem, 1991):
pKi: −log10 of the molar value.

Assays:
[1] = biological target: T1, Muscarinic acetylcholine receptor M2 (Rattus norvegicus, UniProt P10980); test: Displacement of [3H](-)-quinuclidinyl benzilate(QNB) from muscarinic (M2) receptor in rat heart homogenates; assay type: tissue-based
T1 sequence (P10980 whole entry): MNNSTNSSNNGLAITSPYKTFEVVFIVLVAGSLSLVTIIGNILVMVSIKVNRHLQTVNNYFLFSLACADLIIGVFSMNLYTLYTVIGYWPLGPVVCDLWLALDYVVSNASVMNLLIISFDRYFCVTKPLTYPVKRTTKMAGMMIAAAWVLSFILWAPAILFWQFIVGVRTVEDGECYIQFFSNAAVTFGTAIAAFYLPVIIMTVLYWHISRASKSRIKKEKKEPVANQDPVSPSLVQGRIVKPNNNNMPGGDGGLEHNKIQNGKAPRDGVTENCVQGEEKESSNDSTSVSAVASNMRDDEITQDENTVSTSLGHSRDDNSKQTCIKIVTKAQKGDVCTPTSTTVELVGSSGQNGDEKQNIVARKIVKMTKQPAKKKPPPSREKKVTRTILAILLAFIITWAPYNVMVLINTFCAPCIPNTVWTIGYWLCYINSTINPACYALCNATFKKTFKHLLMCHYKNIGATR

[2] = biological target: T2, Muscarinic acetylcholine receptor M1 (Rattus norvegicus, UniProt P08482); set-up: species or system Cortex
T2 sequence (P08482 whole entry): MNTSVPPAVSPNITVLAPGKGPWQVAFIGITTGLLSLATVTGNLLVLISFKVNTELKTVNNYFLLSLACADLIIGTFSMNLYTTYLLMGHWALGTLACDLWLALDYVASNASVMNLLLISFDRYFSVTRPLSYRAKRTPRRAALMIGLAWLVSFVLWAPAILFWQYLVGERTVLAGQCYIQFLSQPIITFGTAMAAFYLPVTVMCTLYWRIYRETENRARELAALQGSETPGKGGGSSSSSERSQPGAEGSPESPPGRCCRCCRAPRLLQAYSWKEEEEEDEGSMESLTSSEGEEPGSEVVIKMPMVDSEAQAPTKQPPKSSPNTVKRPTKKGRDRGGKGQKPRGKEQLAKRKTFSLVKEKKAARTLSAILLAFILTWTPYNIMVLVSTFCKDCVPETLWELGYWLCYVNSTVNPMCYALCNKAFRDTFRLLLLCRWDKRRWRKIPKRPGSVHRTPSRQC

Structure (SMILES) | pKi [1] | pKi [2]
CCN(CC)CCOC(=O)C1(c2ccc(N)cc2)CCCC1 | 6.94 | 7.70
CCN(CC)CCOC(=O)C1(c2ccc(N3CCCC3)cc2)CCCC1 | 6.26 | 6.82
CCN(CC)CCOC(=O)C1(c2ccc(-n3cnnn3)cc2)CCCC1 | 6.36 | 7.84
CCN(CC)CCOC(=O)C1(c2ccc([N+](=O)[O-])cc2)CCCC1 | 6.41 | 8.26
CCN(CC)CCOC(=O)C1(c2ccc(I)cc2)CCCC1 | 6.91 | 8.68
CCN(CC)CCOC(=O)C1(c2ccc(C#N)cc2)CCCC1 | 6.67 | 8.09
CCN(CC)CCOC(=O)C1(c2ccccc2)CCCC1 | 7.50 | 8.92
CCN(CC)CCOC(=O)C1(C2CCCCC2)CCCCC1 [DICYCLOMINE] | 7.33 | –
